According to US20250346569A1, “NEW DERIVATIVES FOR TREATING TRPM3 MEDIATED DISORDERS” (Katholieke Universiteit Leuven, priority 2022, published 2025):

molecular target: T1, mouse TRPM3α2 (mTRPM3) ion channel (Mus musculus, UniProt J9SQF3); test: Monitoring the TRPM3 ion channel driven Ca2+ uptake (Fluo-4 AM assay); format: cell-based; conditions: TRPM3 overexpressing flip-in HEK293 cells, channel stimulated with Pregnenolone sulfate (PS) 50 μM
T1 construct: expressed in transfected cells; host or cells: flip-in HEK293
Method: Monitoring the TRPM3 ion channel driven Ca^2+ uptake.
In order to monitor the inhibition of the mouse TRPM3α2 (mTRPM3) ion channel by the compounds of the invention, a cellular system making use of an mTRPM3alpha2 or hTRPM3 overexpressing cell line (flip-in HEK293) was used. The TRPM3 channel was stimulated/opened with Pregnenolone sulfate (PS) (50 μM) which results in Ca^2+ influx.
For mTRPM3, the intracellular Ca^2+ was measured with a Calcium responsive dye, Fluor-4 AM ester (Invitrogen). Cells were cultured until a confluence of 80-90%, washed with Versene (Invitrogen) and detached from the surface by a short incubation with 0.05% Trypsin (Invitrogen). The trypsination process was stopped by the addition of complete cell culture medium (DMEM, glutamax,10% FCS,NEAA,Pen-Strep). Cells were collected and resuspended in Krebs buffer without Calcium at RT.
Prior the cell seeding (±2000 cells/well into a black, 384 well plate (Greiner)) the diluted compound was added in the assay plate, together with the PS dissolved in Krebs buffer containing Calcium. […] Directly after cell addition the plates were read on an Envision fluorescence reader (Perkin Elmer) by an Excitation of 485 nm and emission at 535 nm.
Channel inhibition was calculated compared to a non-PS stimulated control versus a condition stimulated with PS (50 μM) with vehicle. The ability of the compounds of the invention to inhibit this activity was determined as: Percentage inhibition=[1−((RFU determined for sample with test compound present−RFU determined for sample with positive control inhibitor) divided by (RFU determined in the presence of vehicle−RFU determined for sample with positive control inhibitor))]*100.
The activities of the Example compounds tested are depicted in the table below. The activity ranges A, B and C refer to IC50 values in the Fluo-4 AM assay as follows: “A”: IC50<1 μM; “B”: 1 μM≤IC50≤20 μM and “C”: IC50>20 μM

T1 sequence (J9SQF3 1-1709 isoform J9SQF3-12): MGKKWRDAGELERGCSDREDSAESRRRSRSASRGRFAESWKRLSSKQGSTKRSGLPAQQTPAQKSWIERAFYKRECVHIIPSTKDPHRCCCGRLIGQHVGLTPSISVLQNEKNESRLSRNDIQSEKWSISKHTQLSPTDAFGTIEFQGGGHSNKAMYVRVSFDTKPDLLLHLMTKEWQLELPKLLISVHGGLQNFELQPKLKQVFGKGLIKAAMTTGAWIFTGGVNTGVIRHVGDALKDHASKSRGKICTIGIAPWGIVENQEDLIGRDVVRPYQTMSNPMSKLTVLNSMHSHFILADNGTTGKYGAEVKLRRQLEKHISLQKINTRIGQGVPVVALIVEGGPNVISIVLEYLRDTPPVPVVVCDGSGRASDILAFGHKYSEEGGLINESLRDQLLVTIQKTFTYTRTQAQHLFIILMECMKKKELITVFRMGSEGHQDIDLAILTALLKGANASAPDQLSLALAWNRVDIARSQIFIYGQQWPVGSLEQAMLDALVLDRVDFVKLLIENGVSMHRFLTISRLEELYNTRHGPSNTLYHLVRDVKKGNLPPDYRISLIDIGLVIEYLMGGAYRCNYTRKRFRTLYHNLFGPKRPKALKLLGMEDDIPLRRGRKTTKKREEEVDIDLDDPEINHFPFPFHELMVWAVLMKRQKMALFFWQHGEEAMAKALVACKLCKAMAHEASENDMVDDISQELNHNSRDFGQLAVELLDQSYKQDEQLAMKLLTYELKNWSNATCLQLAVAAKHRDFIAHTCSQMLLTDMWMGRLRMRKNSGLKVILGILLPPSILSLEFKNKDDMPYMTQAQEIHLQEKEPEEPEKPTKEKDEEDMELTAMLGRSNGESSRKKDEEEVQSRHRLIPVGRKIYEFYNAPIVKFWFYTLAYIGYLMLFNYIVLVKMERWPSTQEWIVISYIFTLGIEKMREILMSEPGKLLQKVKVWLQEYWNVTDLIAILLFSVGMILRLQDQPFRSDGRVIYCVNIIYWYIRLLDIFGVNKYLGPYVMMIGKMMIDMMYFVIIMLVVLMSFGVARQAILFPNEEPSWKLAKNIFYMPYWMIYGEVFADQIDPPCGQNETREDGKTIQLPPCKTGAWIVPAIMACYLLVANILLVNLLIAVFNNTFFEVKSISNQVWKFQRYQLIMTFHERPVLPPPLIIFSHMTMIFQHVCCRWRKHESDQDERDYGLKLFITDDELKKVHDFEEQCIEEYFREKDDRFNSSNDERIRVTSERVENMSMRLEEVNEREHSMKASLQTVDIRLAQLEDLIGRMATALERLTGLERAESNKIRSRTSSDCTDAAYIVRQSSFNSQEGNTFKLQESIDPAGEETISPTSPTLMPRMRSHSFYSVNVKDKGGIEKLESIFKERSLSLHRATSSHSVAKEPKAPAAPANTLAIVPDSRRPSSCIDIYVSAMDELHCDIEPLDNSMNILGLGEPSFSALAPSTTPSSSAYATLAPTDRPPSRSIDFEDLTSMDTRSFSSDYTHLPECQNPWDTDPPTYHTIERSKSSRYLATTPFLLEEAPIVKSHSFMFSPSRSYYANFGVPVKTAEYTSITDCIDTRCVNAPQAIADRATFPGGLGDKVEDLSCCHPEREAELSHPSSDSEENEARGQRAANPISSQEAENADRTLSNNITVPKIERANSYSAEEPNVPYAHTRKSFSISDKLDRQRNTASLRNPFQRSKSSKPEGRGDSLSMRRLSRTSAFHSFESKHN

Question: Which IC50 does the source give for `Cc1ncc(COc2ccc3sc(C)c(C(=O)N[C@@H](CO)C(N)=O)c3c2)s1` [Cpd 016, (2S)-3-hydroxy-2-({2-methyl-5-[(2-methyl-1,3-thiazol-5-yl)methoxy]-1-benzothiophen-3-yl}formamido)propanamide] here?
Answer: < 1 µM

Question: For `Cc1ncc(COc2ccc3sc(C)c(C(=O)N[C@H](CO)C(N)=O)c3c2)s1` [Cpd 017, (2R)-3-hydroxy-2-({2-methyl-5-[(2-methyl-1,3-thiazol-5-yl)methoxy]-1-benzothiophen-3-yl}formamido)propanamide], which IC50 is on record?
Answer: < 1 µM

Question: How did the IC50 turn out when `Cc1ncc(COc2ccc3sc(C)c(C(=O)NC(C)(C)C(N)=O)c3c2)s1` [Cpd 018, 2-methyl-2-({2-methyl-5-[(2-methyl-1,3-thiazol-5-yl)methoxy]-1-benzothiophen-3-yl}formamido)propanamide] was run?
Answer: < 1 µM

Question: Which IC50 does the source give for `Cc1ncc(COc2ccc3sc(C)c(C(=O)NC4(C(N)=O)CCOC4)c3c2)s1` (centres unmarked) [Cpd 020, 3-{2-methyl-5-[(2-methyl-1,3-thiazol-5-yl)methoxy]-1-benzothiophene-3-amido}oxolane-3-carboxamide] here?
Answer: < 1 µM

Question: How did the IC50 turn out when `Cc1ncc(COc2ccc3sc(C)c(C(=O)NC4(C(N)=O)CCOCC4)c3c2)s1` [Cpd 021, 4-{2-methyl-5-[(2-methyl-1,3-thiazol-5-yl)methoxy]-1-benzothiophene-3-amido}oxane-4-carboxamide] was run?
Answer: < 1 µM

Question: How did the IC50 turn out when `Cc1ncc(COc2ccc3sc(C)c(C(=O)NC4(CO)CC4)c3c2)s1` [Cpd 022, N-[1-(hydroxymethyl)cyclopropyl]-2-methyl-5-[(2-methyl-1,3-thiazol-5-yl)methoxy]-1-benzothiophene-3-carboxamide] was run?
Answer: 1 to 20 µM

Question: For `Cc1ncc(COc2ccc3sc(C)c(C(=O)NC4(CO)CCC4)c3c2)s1` [Cpd 023, N-[1-(hydroxymethyl)cyclobutyl]-2-methyl-5-[(2-methyl-1,3-thiazol-5-yl)methoxy]-1-benzothiophene-3-carboxamide], which IC50 is on record?
Answer: < 1 µM

Question: Which IC50 does the source give for `Cc1ncc(COc2ccc3sc(C)c(C(=O)NC4(CO)CCOCC4)c3c2)s1` [Cpd 024, N-[4-(hydroxymethyl)oxan-4-yl]-2-methyl-5-[(2-methyl-1,3-thiazol-5-yl)methoxy]-1-benzothiophene-3-carboxamide] here?
Answer: 1 to 20 µM

Question: For `Cc1ncc(COc2ccc3sc(C)c(C(=O)NC4(CO)COC4)c3c2)s1` [Cpd 025, N-[3-(hydroxymethyl)oxetan-3-yl]-2-methyl-5-[(2-methyl-1,3-thiazol-5-yl)methoxy]-1-benzothiophene-3-carboxamide], which IC50 is on record?
Answer: < 1 µM

Question: `Cc1ncc(COc2ccc3sc(C)c(C(=O)NC4(C(N)=O)COC4)c3c2)s1` [Cpd 026, 3-{2-methyl-5-[(2-methyl-1,3-thiazol-5-yl)methoxy]-1-benzothiophene-3-amido}oxetane-3-carboxamide] was tested. Which IC50 did it give?
Answer: < 1 µM

Question: Which IC50 does the source give for `Cc1ncsc1COc1ccc2sc(C)c(C(=O)N[C@@H](CO)C(N)=O)c2c1` [Cpd 027, (2S)-3-hydroxy-2-({2-methyl-5-[(4-methyl-1,3-thiazol-5-yl)methoxy]-1-benzothiophen-3-yl}formamido)propanamide] here?
Answer: < 1 µM

Question: With `Cc1ncsc1COc1ccc2sc(C)c(C(=O)N[C@@H]3CCN(CCO)C3=O)c2c1` [Cpd 028, N-[(3R)-1-(2-hydroxyethyl)-2-oxopyrrolidin-3-yl]-2-methyl-5-[(4-methyl-1,3-thiazol-5-yl)methoxy]-1-benzothiophene-3-carboxamide] as the compound, how does the IC50 read?
Answer: 1 to 20 µM

Question: Which IC50 does the source give for `Cc1ncsc1COc1ccc2sc(C)c(C(=O)N[C@H](CO)C(N)=O)c2c1` [Cpd 029, (2R)-3-hydroxy-2-({2-methyl-5-[(4-methyl-1,3-thiazol-5-yl)methoxy]-1-benzothiophen-3-yl}formamido)propanamide] here?
Answer: < 1 µM

Question: Which IC50 does the source give for `Cc1ncsc1COc1ccc2sc(C)c(C(=O)N[C@H]3CCN(CCO)C3=O)c2c1` [Cpd 030, N-[(3S)-1-(2-hydroxyethyl)-2-oxopyrrolidin-3-yl]-2-methyl-5-[(4-methyl-1,3-thiazol-5-yl)methoxy]-1-benzothiophene-3-carboxamide] here?
Answer: < 1 µM
